Columns and labels:
[1] = target: mTOR (Homo sapiens (Human), UniProt P42345); assay: mTOR kinase activity assay (phosphorylation status of mTOR substrate 4E-BP1; TR-FRET); type: biochemical; details: GFP-4E-BP1 substrate, 8 μM ATP
Procedure: mTOR Kinase Activity Assay
(Phosphorylation Status of mTOR Substrate 4E-BP1; TR-FRET)
The mTOR kinase TR-FRET assay utilizes a physiologically relevant protein substrate for mTOR (4E-BP1, labeled with an acceptor fluorophore (Green Fluorescent Protein) and paired with a corresponding Tb-labeled phospho-specific antibody.
The assay itself is divided into two phases: the reaction phase and the detection phase. In the reaction phase, all components required for the kinase reaction are added to the well, including the labeled protein substrate. The reaction is allowed to incubate for 60 minutes. After the reaction, EDTA is added to stop the kinase reaction, and terbium-labeled antibody is added to bind phosphorylated product. Because the terbium chelate is stable at the EDTA concentrations used to stop a kinase assay, the antibody and EDTA can be pre-mixed prior to addition to minimize pipetting steps. Binding of the terbium labeled antibody to the fluorophore-labeled phosphorylated product brings the terbium and GFP into proximity, resulting in an increase in TR-FRET. In the presence of an inhibitor, formation of phosphorylated product is reduced, and the TR-FRET value is decreased.
• GFP-4E-BP1 substrate; Invitrogen order no. PV4759 • Lanthascreen Tb-anti-p4E-BP1 (pThr46) Antibody Kit; Invitrogen order no. PV4758 • FRAP1 (mTOR) kinase; Invitrogen order no.
400 nM GFP-4E-BP1, 8 μM ATP, ˜150 ng/mL mTOR, 50 mM HEPES pH 7.5, 0.01% Polysorbate 20, 1 mM EGTA, 10 mM MnCl2, and variable amounts of test compounds.
Note: Thaw and keep mTOR, the substrate, ATP, and the antibody on ice prior to making working dilutions. Working dilutions of these components can be kept at room temperature for short periods of time the day of use. • 1. Add 2 ml of 5× Assay Buffer to 8 ml water to prepare 10 ml of 1× Assay Buffer, wherein the concentration of 1× Assay Buffer is 50 mM HEPES pH 7.5, 0.01% Polysorbate 20, 1 mM EGTA, and 10 mM MnCl2. • 2. Prepare Antibody/EDTA Solution by first adding 2.75 μl of Tb-anti p4E-BP1 Antibody to 2397 μl of LanthaScreen™ TR-FRET Dilution Buffer. Then, add 100 μl of 0.5 M EDTA. • 3. […] Then, add 1.6 μl of mTOR (0.45 mg/mL). • 4. Prepare ATP Solution by adding 3.2 μl of 10 mM ATP to 1997 μl of 1× Assay Buffer. Serial Dilution of Inhibitors (16 Point Curve)
Inhibitors are serially diluted in DMSO, then diluted to a 4× working concentration with 1× Assay Buffer. • 1. Dispense 40 μl of DMSO to two adjacent columns of a 96 well plate per compound (e.g. columns 1 and 2). • 2. Add 10 μl of inhibitor stock (10 mM) to the first well of the first column (A1) and mix. • 3. Remove 10 μl from A1 and transfer to the adjacent well in the next column (B1) and mix. • 4. Remove 10 μl from B1 and transfer to the next well in the first column (B2) and mix. • 5. […] Remove 4 μl of diluted compounds and add to 96 μl of 1× Assay Buffer in a 96-well plate making 4× compound dilutions. Kinase Reaction • 1. Add 2.5 μl of 4X compound dilutions to a 384-well plate. • 2. […] Preincubate for […] at RT (shaker). • 5. Add 5 μl of ATP Solution to all wells to start reactions. • 6. Shake the assay plate on a plate shaker for 30 seconds. • 7. Incubate the assay plate for one hour at room temperature (20-25° C.). Stop Step and Fluorescence Detection • 1. Add 10 μl of Antibody/EDTA Solution to each well in columns 1-9. • 2. Shake the assay plate on a plate shaker for 30 seconds. • 3. Incubate the assay plate for one hour at room temperature (20-25° C.). • 4. Measure the GFP (FRET) and terbium (reference) emission signals on a fluorescence plate reader (e.g. Perkin Elmer Envision). Data Analysis • 1. Calculate the emission ratio for each sample by dividing the GFP (FRET) signal by the terbium (reference) signal. • 2.

[2] = target: PI3Kalpha (Homo sapiens (Human), UniProt P42336); assay: Inhibition of PI3Kalpha-induced PIP-2 phosphorylation (filter-binding assay); type: biochemical; details: 33P-ATP
Sequence of PI3Kalpha (P42336 whole entry, species assumed): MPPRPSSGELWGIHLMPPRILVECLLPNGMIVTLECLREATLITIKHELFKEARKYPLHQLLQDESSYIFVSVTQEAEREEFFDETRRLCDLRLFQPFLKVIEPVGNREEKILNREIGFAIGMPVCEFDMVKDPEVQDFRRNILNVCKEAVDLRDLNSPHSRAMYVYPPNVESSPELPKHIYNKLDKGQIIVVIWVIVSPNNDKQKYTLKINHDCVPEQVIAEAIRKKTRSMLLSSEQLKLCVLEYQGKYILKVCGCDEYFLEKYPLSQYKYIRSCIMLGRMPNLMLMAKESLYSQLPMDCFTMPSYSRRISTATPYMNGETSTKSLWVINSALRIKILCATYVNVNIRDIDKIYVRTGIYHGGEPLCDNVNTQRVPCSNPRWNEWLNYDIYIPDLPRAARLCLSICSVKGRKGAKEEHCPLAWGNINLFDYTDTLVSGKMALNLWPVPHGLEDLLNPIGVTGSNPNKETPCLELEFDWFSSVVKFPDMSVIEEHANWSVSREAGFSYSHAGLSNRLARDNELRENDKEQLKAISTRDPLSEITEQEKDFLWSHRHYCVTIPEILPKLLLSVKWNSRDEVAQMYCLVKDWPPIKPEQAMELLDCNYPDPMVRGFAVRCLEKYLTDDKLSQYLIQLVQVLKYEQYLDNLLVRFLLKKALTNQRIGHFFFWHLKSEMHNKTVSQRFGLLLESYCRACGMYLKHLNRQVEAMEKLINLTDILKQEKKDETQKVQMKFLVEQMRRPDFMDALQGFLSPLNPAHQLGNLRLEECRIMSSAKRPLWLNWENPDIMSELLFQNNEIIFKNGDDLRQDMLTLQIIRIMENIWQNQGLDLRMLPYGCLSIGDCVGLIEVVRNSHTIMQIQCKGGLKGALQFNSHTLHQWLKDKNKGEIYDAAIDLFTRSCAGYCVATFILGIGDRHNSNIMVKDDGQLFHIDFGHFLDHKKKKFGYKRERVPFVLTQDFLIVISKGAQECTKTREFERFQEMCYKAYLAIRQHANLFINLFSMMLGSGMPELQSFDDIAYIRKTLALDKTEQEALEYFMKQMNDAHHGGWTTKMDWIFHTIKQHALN
Sequence of PI3Kalpha (P27986 whole entry partner, species assumed): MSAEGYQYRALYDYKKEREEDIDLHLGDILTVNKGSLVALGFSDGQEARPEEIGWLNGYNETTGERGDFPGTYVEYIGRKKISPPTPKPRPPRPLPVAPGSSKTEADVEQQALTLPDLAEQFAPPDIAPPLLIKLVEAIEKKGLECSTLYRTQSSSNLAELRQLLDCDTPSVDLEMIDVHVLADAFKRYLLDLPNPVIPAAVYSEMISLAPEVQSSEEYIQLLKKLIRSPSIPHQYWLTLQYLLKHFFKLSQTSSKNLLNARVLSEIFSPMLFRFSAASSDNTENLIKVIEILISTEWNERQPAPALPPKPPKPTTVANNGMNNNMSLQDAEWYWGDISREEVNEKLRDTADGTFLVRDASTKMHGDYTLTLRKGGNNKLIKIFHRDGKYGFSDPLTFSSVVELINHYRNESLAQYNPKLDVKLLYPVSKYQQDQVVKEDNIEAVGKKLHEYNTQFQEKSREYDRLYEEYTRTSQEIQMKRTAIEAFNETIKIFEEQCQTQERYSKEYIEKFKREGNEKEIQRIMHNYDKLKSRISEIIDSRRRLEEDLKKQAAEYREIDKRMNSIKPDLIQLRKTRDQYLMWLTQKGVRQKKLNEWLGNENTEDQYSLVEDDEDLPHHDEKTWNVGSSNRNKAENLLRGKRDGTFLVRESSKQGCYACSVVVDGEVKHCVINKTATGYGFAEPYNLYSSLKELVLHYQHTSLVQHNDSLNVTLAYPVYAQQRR
Procedure: Inhibition of PI3Kalpha-Induced PIP-2 Phosphorylation
Method Type: Filter-Binding-Assay
Aliquoted in desired amounts and stored at −80° C. Final assay concentration 25 ng/well.

[3] = test system: PC3 (human prostate carcinoma cell line) cells; assay: PC3 proliferation test; type: cell-based; details: PC-3, 72 h, 3 days incubation, DNA dye fluorescence
Procedure: The test is based on measurement of cellular DNA content via fluorescent dye binding. Because cellular DNA content is highly regulated, it is closely proportional to cell number. The extent of proliferation is determined by comparing cell counts for samples treated with drugs with untreated controls.
PC3 (human prostate carcinoma cell line) cells are sown in microtitre plates and incubated overnight in culture medium at 37° C. and 5% CO2. The test substances are diluted stepwise and added to the cells such that the total volume is 200 μL/well. Cells to which diluent, but not substance, is added serve as controls.

Sequence of mTOR (P42345 1360-2549): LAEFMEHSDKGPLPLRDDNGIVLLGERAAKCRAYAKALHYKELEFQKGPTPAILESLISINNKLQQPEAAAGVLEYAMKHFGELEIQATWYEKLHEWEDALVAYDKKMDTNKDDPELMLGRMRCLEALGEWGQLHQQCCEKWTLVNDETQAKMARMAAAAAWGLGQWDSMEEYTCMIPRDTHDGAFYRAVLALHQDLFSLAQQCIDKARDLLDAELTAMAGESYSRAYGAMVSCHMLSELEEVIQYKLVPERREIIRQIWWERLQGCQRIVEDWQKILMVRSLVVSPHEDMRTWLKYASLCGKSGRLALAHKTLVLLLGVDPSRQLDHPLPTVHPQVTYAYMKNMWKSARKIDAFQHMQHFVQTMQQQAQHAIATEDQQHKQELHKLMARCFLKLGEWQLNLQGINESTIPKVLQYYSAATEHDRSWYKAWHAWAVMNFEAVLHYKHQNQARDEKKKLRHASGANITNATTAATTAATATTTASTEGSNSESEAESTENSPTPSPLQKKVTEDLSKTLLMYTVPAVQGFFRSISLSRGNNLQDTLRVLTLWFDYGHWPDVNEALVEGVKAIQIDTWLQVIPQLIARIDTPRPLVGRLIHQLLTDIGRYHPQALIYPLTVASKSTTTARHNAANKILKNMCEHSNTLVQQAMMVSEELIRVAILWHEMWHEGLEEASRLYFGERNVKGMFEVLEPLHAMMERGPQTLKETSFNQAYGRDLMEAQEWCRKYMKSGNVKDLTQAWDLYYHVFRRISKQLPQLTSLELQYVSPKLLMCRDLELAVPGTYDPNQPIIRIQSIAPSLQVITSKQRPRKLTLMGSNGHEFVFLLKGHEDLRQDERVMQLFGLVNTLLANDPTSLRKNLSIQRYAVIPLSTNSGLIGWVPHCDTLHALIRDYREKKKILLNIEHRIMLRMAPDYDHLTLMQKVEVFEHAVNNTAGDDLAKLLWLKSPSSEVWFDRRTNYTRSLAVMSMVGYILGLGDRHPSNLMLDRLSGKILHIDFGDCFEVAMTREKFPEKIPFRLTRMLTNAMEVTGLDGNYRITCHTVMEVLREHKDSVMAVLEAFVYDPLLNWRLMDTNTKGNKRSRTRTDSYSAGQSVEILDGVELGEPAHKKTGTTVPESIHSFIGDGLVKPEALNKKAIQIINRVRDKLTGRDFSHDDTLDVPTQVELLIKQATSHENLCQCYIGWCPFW

Row | SMILES | IC50 [1] [nM] | IC50 PI3Ka [2] [nM] | EC50 [3] [nM]
1 | CCc1ncnc(N2CCN(C(=O)c3ccccn3)CC2)c1C#Cc1ccc(N)nc1 [Example G-2] | 90 | 47 | 138
2 | CCc1ncnc(N2CCC(OC)CC2)c1C#Cc1ccc(C)nc1 [Example B-68] | 122 | 183 | 589
3 | Cc1ncnc(N2CC[S+]([O-])CC2)c1C#Cc1ccc(N)nc1 [Example B-3] | 83 | 199 | 501
4 | CCCCCC(=O)NCC1CCN(c2ncnc(C)c2C#Cc2ccc(N)nc2)CC1 [Example F-2] | 31 | 23 | 344
5 | CCc1ncnc(N2CCC(O)(C3CCCCC3)CC2)c1C#Cc1ccc(N)nc1 [Example B-12] | 16 | 189 | 94
6 | Cc1ncnc(N2CCC(O)(C3CCCCC3)CC2)c1C#Cc1ccc(N)nc1 [Example B-74] | 30 | 98 | 195
7 | CCc1ncnc(N2CCN(C(=O)CC#N)CC2)c1C#Cc1ccc(N)nc1 [Example G-3] | 91 | 60 | 550
8 | CCc1ncnc(N2CCC(C)(OC)CC2)c1C#Cc1ccc(N)nc1 [Example B-59] | 5 | 53 | 23
9 | COC1CCN(c2ncnc(C)c2C#Cc2ccc(N)nc2)CC1 [Example B-38] | 18 | 37 | 122
10 | CCc1ncnc(N2CCC(CC(C)(C)O)CC2)c1C#Cc1ccc(N)nc1 [Example B-14] | 9 | 26 | 29
11 | CCN(C)C(=O)CC1CCN(c2ncnc(C)c2C#Cc2ccc(N)nc2)CC1 [Example E-7] | 53 | 44 | 266
12 | CCc1ncnc(N2CCS(=O)(=O)CC2)c1C#Cc1ccc(N)nc1 [Example B-53] | 12 | 380 | 142
13 | CCc1ncnc(N2CCCC2)c1C#Cc1ccc(N)nc1 [Example B-58] | 42 | 131 | 492
14 | CCc1ncnc(N2CCC(C(C)(C)O)CC2)c1C#Cc1ccc(N)nc1 [Example B-11] | 7 | 31 | 60
15 | Cc1ncnc(N2CCCOCC2)c1C#Cc1ccc(N)nc1 [Example B-6] | 72 | 246 | 441
16 | CCc1ncnc(N2CCC(OC)CC2)c1C#Cc1ccc(N)nc1 [Example B-44] | 10 | 58 | 76
17 | CCc1ncnc(N2CCC(CCO)CC2)c1C#Cc1ccc(N)nc1 [Example B-18] | 5 | 35 | 34
18 | Cc1ncnc(N2CCC(CC(=O)N(C)C)CC2)c1C#Cc1ccc(N)nc1 [Example E-1] | 45 | 54 | 221
19 | CCc1ncnc(N2CCC(CO)CC2)c1C#Cc1ccc(N)nc1 [Example B-45] | 10 | 58 | 46
20 | CCc1ncnc(N2CCC(CO)CC2)c1C#Cc1ccc(C)nc1 [Example B-72] | 70 | 134 | 474
21 | CCc1ncnc(N2CC[S+]([O-])CC2)c1C#Cc1ccc(N)nc1 [Example B-52] | 28 | 104 | 180

Row | SMILES | IC50 [1] [nM] | IC50 PI3Ka [2] [nM] | EC50 [3] [nM]
22 | CCc1ncnc(N2CCC(O)(CC)CC2)c1C#Cc1ccc(C)nc1 [Example B-33] | 51 | 102 | 152
23 | CCc1ncnc(N2CCN(CCOC)CC2)c1C#Cc1ccc(N)nc1 [Example B-55] | 26 | 718 | 191
24 | CCc1ncnc(N2CCC(O)C(C)C2)c1C#Cc1ccc(N)nc1 (stereo not drawn) [Example B-64] | 10 | 55 | 53
25 | CC(=O)NC1CCN(c2ncnc(C)c2C#Cc2ccc(N)nc2)CC1 [Example B-25] | 42 | 78 | 267
26 | CCc1ncnc(N2CCN(C(=O)OC)CC2)c1C#Cc1ccc(N)nc1 [Example G-6] | 101 | 52 | 106
27 | CCc1ncnc(N2CCC(F)(F)CC2)c1C#Cc1ccc(N)nc1 [Example B-42] | 31 | 196 | 105
28 | CCc1ncnc(N2CCC(O)(c3ccccc3)CC2)c1C#Cc1ccc(N)nc1 [Example B-16] | 7 | 91 | 34
29 | Cc1ncnc(N2CCC3(CCN(C)CC3)CC2)c1C#Cc1ccc(N)nc1 [Example B-80] | 25 | 99 | 161
30 | Cc1ncnc(N2C[C@@H](C)O[C@@H](C)C2)c1C#Cc1ccc(N)nc1 [Example B-9] | 11 | 34 | 184
31 | CCc1ncnc(N2CCC3(CC2)OCCO3)c1C#Cc1ccc(N)nc1 [Example B-22] | 4 | 57 | 32
32 | CC(=O)NC1CCCN(c2ncnc(C)c2C#Cc2ccc(N)nc2)C1 (stereo not drawn) [Example B-24] | 46 | 158 | 352
33 | CCc1ncnc(N2CCC(O)(C(F)(F)F)CC2)c1C#Cc1ccc(N)nc1 [Example B-19] | 1 | 53 | 3
34 | CCc1ncnc(N2CCN(CC(C)(C)O)CC2)c1C#Cc1ccc(N)nc1 [Example B-81] | 7 | 143 | 71
35 | Cc1ncnc(N2CCC3(CC2)OCCCO3)c1C#Cc1ccc(N)nc1 [Example B-60] | 6 | 14 | 75
36 | CCc1ncnc(N2CCN(C(=O)c3ccccc3)CC2)c1C#Cc1ccc(N)nc1 [Example G-5] | 157 | 110 | 225
37 | CCc1ncnc(N2CCC(O)(C(C)C)CC2)c1C#Cc1ccc(C)nc1 [Example B-35] | 23 | 172 | 168
38 | Cc1ncnc(N2CCC(CC(C)(C)O)CC2)c1C#Cc1ccc(N)nc1 [Example B-13] | 18 | 29 | 51
39 | CCc1ncnc(N2CCC(CCO)CC2)c1C#Cc1ccc(C)nc1 [Example B-29] | 67 | 88 | 234
40 | CCc1ncnc(N2CCCC(CO)C2)c1C#Cc1ccc(N)nc1 (stereo not drawn) [Example B-49] | 28 | 73 | 124
41 | CCOC1CCN(c2ncnc(CC)c2C#Cc2ccc(C)nc2)CC1 [Example B-69] | 168 | 99 | 783
42 | COCCC(=O)NCC1CCN(c2ncnc(C)c2C#Cc2ccc(N)nc2)CC1 [Example F-5] | 18 | 69 | 141

Reference: patent publication US8618111B2, “5-alkynyl-pyrimidines” (Boehringer Ingelheim International GmbH, priority 2010, dated 2013)
